Source: PubChem BioAssay (NCI)
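Compound exposure: 48 hours, 5 concentrations, 96-well plates. Abbreviation: GI50, concentration required for 50% inhibition of growth. TGI: total growth inhibition.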

Legend:
Experiment in all cases: inhibition of tumour cell growth, NCI panel, 48 h
SN12C renal = test system: SN12C renal
SK-MEL-28 melanoma = test system: SK-MEL-28 melanoma
HS 578T breast = test system: HS 578T breast
CCRF-CEM leukemia = test system: CCRF-CEM leukemia
NCI-H522 lung = test system: NCI-H522 lung
MCF7 breast = test system: MCF7 breast
M14 melanoma = test system: M14 melanoma
NCI-H226 lung = test system: NCI-H226 lung
SF-295 CNS = test system: SF-295 CNS
T-47D breast = test system: T-47D breast

| SMILES | TGI (SN12C renal) [µM] | TGI (SK-MEL-28 melanoma) [µM] | TGI (HS 578T breast) [µM] | TGI (CCRF-CEM leukemia) [µM] | TGI (NCI-H522 lung) [µM] | TGI (MCF7 breast) [µM] | TGI (M14 melanoma) [µM] | TGI (NCI-H226 lung) [µM] | TGI (SF-295 CNS) [µM] | TGI (T-47D breast) [µM] | GI50 (SN12C renal) [µM] | GI50 (SK-MEL-28 melanoma) [µM] | GI50 (HS 578T breast) [µM] | GI50 (CCRF-CEM leukemia) [µM] | GI50 (NCI-H522 lung) [µM] | GI50 (MCF7 breast) [µM] | GI50 (M14 melanoma) [µM] | GI50 (NCI-H226 lung) [µM] | GI50 (SF-295 CNS) [µM] | GI50 (T-47D breast) [µM] |
| --- | --- | --- | --- | --- | --- | --- | --- | --- | --- | --- | --- | --- | --- | --- | --- | --- | --- | --- | --- | --- |
| COC(=O)[C@]1(C)CCC[C@@]2(C)[C@@H]3C[C@@H]4[C@H]5C[C@@]3(CC[C@@H]21)C[C@@]45C | 33.5 | 47.1 | 47.9 | 45.7 | 32.9 | 30.3 | 38.8 | 30.5 | 28.5 | 62.2 | – | – | – | – | – | – | – | – | – | – |
| Cc1ccc2sc3ccc(N)cc3c(=O)c2c1 | > 100 | > 100 | > 100 | > 100 | > 100 | > 100 | > 100 | > 100 | > 100 | 78.5 | – | – | – | – | – | – | – | – | – | – |
| CCCCNC(=O)Oc1ccc(/C(=C(/CC)Cc2ccccc2)c2ccc(OCCN3CCCCCC3)cc2)cc1 | 83.6 | 33.1 | 44.1 | 93.5 | 43.8 | 59.6 | 33.9 | > 100 | 38.4 | 36.9 | 29.6 | 16.5 | 19.7 | 31.9 | 20 | 6.32 | 17.7 | > 100 | 18.3 | 14.5 |
| O=C(Nc1ccc(Br)cc1)Nc1nn(C(=O)Nc2ccc(Br)cc2)c2ccccc12 | > 100 | > 100 | 55.8 | > 22.8 | > 100 | > 100 | > 100 | > 100 | 66.1 | > 93 | 43.9 | 96.9 | 13.7 | 7.08 | 31 | 29.1 | > 70.8 | 27.7 | 18 | 28.1 |
| COc1cc(/C=C2\CN(C(=O)CCN3CCC(=NO)CC3)C/C(=C\c3cc(OC)c(OC)c(OC)c3)C2=O)cc(OC)c1OC | 0.695 | 0.766 | 13.5 | 1.6 | 1.34 | 2.44 | 0.812 | 2.85 | 1.67 | 10.6 | 0.241 | 0.279 | 0.441 | 0.266 | 0.323 | 0.382 | 0.248 | 0.792 | 0.656 | 0.803 |
| CN(C)CCCc1c2ccccc2nc2ccc(Cl)cc12 | 26.1 | 37.3 | 34.4 | 35.8 | 29.4 | 23.7 | 27.8 | 40.7 | 30.9 | > 100 | – | – | – | – | – | – | – | – | – | – |
| C[C@]12CC[C@@H](OC(=O)N(CCCl)N=O)C[C@@H]1CC[C@@H]1[C@@H]2CC[C@]2(C)C(=O)CC[C@@H]12 | 23.3 | 29.6 | 17.9 | > 100 | 30.8 | 19.2 | 44.9 | 31.4 | > 51.1 | 55.9 | 8.01 | 14.7 | 3.04 | 14.2 | 9.06 | 1.38 | 14.7 | 14.6 | 0.308 | 2.82 |
